Structures can show the parent of a compound that is named as a salt. Where two headings read alike, the source gives them in different places.
Assays:
D2 receptor = molecular target: T1, D2 receptor (Chlorocebus aethiops, UniProt P52702); test: D2 receptor binding activity (pellets of COS cells, 3H-YM 09151-2); parameters: species or system African Green monkey; settings: 0.5 nM 3H-YM 09151-2, pH 7.4; nonspecific with 1 mM spiperone
T1 construct: expressed in transfected cells; host or cells: COS cells
Protocol: (§1) Pellets of COS cells containing recombinantly produced D2 or D3 receptors from African Green monkey were used for the assays. The sample is homogenized in 100 volumes (w/vol) of 0.05M Tris HCl buffer at 4° C. and pH 7.4. The sample is then centrifuged at 30,000×g and resuspended and rehomogenized. The sample is then centrifuged as described and the final tissue sample is frozen until use. The tissue is resuspended 1:20 (wt/vol) in 0.05M Tris HCl buffer containing 100 mM NaCl.
(§2) Incubations are carried out at 48° C. and contain 0.4 ml of tissue sample, 0.5 nM ^3 H-YM 09151-2 and the compound of interest in a total incubation of 1.0 ml. Nonspecific binding is defined as that binding found in the presence of 1 mM spiperone; without further additions, nonspecific binding is less than 20% of total binding. The binding characteristics of representative compounds of the invention for D2 and D3 receptor subtypes are shown in Table 1 for rat striatal homogenates.

D3 receptor = molecular target: T2, D3 receptor (Chlorocebus aethiops, UniProt P52703); test: D3 receptor binding activity (pellets of COS cells, 3H-YM 09151-2); parameters: species or system African Green monkey
T2 construct: expressed in transfected cells; host or cells: COS cells
Protocol: as §1, §2

[1] = 0.5 nM 3H-YM 09151-2, pH 7.4, nonspecific with 1 mM spiperone, read-out: D3 Ki

T1 sequence (P52702 whole entry): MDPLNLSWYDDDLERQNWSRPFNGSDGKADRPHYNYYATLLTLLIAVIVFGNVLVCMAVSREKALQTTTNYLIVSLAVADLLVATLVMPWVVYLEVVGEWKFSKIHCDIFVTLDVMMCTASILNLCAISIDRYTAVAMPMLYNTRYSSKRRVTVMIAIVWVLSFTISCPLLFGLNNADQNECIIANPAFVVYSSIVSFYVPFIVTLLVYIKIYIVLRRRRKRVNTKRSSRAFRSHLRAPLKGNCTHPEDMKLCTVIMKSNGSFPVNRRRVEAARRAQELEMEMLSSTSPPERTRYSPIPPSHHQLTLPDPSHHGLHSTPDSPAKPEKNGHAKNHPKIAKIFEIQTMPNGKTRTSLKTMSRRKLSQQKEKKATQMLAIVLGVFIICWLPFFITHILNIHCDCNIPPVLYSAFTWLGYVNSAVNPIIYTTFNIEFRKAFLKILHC
T2 sequence (P52703 whole entry): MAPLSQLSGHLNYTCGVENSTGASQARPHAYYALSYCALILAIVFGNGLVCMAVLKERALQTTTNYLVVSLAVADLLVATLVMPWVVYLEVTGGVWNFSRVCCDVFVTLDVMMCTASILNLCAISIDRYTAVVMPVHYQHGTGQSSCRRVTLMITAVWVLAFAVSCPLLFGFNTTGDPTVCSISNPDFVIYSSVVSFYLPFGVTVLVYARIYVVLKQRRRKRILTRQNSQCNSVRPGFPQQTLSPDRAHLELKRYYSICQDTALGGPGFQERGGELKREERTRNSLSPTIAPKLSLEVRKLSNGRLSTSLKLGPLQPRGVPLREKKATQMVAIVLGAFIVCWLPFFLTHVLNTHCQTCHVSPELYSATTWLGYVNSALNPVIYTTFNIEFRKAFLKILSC

| Compound | Ki (D2 receptor) [nM] | Ki (D3 receptor; [1]) [nM] | Ki (D3 receptor) [nM] |
| --- | --- | --- | --- |
| O=C(NCCCCN1CCc2c(ccc3ccccc23)C1)c1cnc2ccccc2n1 [Compound 8, N-{4-(1,2,3,4-tetrahydrobenz[f]isoquinolin-2-yl)butyl}-quinoxaline-2-carboxamide hydrochloride] | 250 | 12 | – |
| O=C(NCCCCN1CCC2=C(CCc3ccccc32)C1)c1ccc(-c2ccccc2)cc1 [Compound 13, N-{4-(1,2,3,4,5,6-hexahydrobenz[f]isoquinolin-2-yl)butyl}-biphenyl-4-carboxamide hydrochloride] | 362 | – | 10 |
| O=C(NCCCCN1CCc2c(ccc3ccccc23)C1)c1ccc2sc3ccccc3c2c1 [Compound 7, N-{4-(1,2,3,4-tetrahydrobenz[f]isoquinolin-2-yl)butyl}-dibenzothiophene-2-carboxamide hydrochloride] | 377 | 5 | – |

More lines, in order of falling Ki (D2 receptor), values ahead:

| Ki (D2 receptor) [nM] | Ki (D3 receptor; [1]) [nM] | Compound | Ki (D3 receptor) [nM] |
| --- | --- | --- | --- |
| 198 | 9 | O=C(NCCCCN1CCN2c3ccccc3CCC2C1)c1ccc2c(c1)Cc1ccccc1-2 (stereo not drawn) [Compound 14, N-{4-(2,3,4,4a,5,6-hexahydro-1H-pyrazino[1,2-a]quinolin-2-yl)butyl}-fluorene-2-carboxamide hydrochloride] | – |
| 165 | 17 | N-{4-(1,2,3,4-tetrahydrobenz[f]isoquinolin-2-yl)butyl}-fluoren-9-one-3-carboxamide hydrochloride [Compound 6] | – |
| 127 | 8 | O=C(NCCCCN1CCc2c(ccc3ccccc23)C1)c1cnc2ccccc2c1 [Compound 1, N-{4-(1,2,3,4-tetrahydrobenz[f]isoquinolin-2-yl)butyl}-quinoline-3-carboxamide hydrochloride] | – |

— patent publication US5688950A, “Tricyclic aminoalkylcarboxamides; novel dopamine D3 receptor subtype specific ligands” (Neurogen Corporation, priority 1996, dated 1997)
